This note sets out measurements from patent USRE42890E1, “Furazanobenzimidazoles” (Basilea Pharmaceutica AG, priority 2003, dated 2011).

The subject of the first assay is HT1080. In words: MTS proliferation assay, HT1080. The format is cell-based, human. Conditions: HT1080, 72 h incubation; read-out: MTS proliferation assay IC 50 HT1080. In short, it runs like this:
(§1)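 Absorbance at 492 nm after 3 h with MTS reagent gave proliferation. This followed 72 h compound exposure (final 0.3, 1, 3, 10 μM) at 37 °C and 7.5% CO2. Cells had been plated 24 h earlier in complete RPMI-1640 with 5% or 10% FCS.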
In general terms: Tetrazolium assays rely on reduction of a dye to a coloured formazan, in cell work by metabolically active cells.
With `Nc1nonc1-c1nc2ccccc2n1COc1ccc([N+](=O)[O-])cc1` [Example 98], the IC50 is > 1000 nM.

For the compound `COc1ccc(C(=O)Cn2c(-c3nonc3NCCC#N)nc3ccccc32)cc1N` [Example 69], the IC50 was 100 to 1000 nM.

For the next assay, the system named is Jurkat. In words: MTS proliferation assay, Jurkat. The format is cell-based, human. Conditions: 72 h incubation, read-out: MTS proliferation assay IC 50 Jurkat. In short, it runs like this: as §1
As for `Nc1nonc1-c1nc2ccccc2n1COc1ccc([N+](=O)[O-])cc1` [Example 98], the IC50 is 100 to 1000 nM.

For `COc1ccc(C(=O)Cn2c(-c3nonc3NCCC#N)nc3ccccc32)cc1N` [Example 69], the IC50 lay within 10 to 100 nM.

The test system of the next assay is adherent cells or suspension cells. In words: Hoechst 33342 nuclear staining (fraction of apoptotic nuclei). The format is cell-based. Further details: key: 0 relating to no activity; 1 relating to weak activity comprising less than 70% of the cells; score 2 relating to strong activity comprising more than 70% of the cells. Conditions: H460, conc 0.01 μm.
For the compound `Nc1nonc1-c1nc2ccccc2n1COc1ccc([N+](=O)[O-])cc1` [Example 98], the “Hoechst 33342 nuclear staining score” value turned out to be 0.

With `COc1ccc(C(=O)Cn2c(-c3nonc3NCCC#N)nc3ccccc32)cc1N` [Example 69], the “Hoechst 33342 nuclear staining score” value turned out to be 0.

The assay is the same for the next values; noted with them: H460, conc 0.1 μm.
Turning to `Nc1nonc1-c1nc2ccccc2n1COc1ccc([N+](=O)[O-])cc1` [Example 98], the “Hoechst 33342 nuclear staining score” value is reported as 0.

For `COc1ccc(C(=O)Cn2c(-c3nonc3NCCC#N)nc3ccccc32)cc1N` [Example 69], the “Hoechst 33342 nuclear staining score” value was determined as 0.

The same assay, now with this note: H460, conc 1 μm.
`Nc1nonc1-c1nc2ccccc2n1COc1ccc([N+](=O)[O-])cc1` [Example 98]: the “Hoechst 33342 nuclear staining score” value is reported as 0.

Regarding `COc1ccc(C(=O)Cn2c(-c3nonc3NCCC#N)nc3ccccc32)cc1N` [Example 69], the “Hoechst 33342 nuclear staining score” value is listed as 2 (score 2 relating to strong activity comprising more than 70% of the cells).

Staying with this assay, now noted: HeLa, conc 0.01 μm.
Consider `Nc1nonc1-c1nc2ccccc2n1COc1ccc([N+](=O)[O-])cc1` [Example 98], for which the “Hoechst 33342 nuclear staining score” value was determined as 0.

As for `COc1ccc(C(=O)Cn2c(-c3nonc3NCCC#N)nc3ccccc32)cc1N` [Example 69], the “Hoechst 33342 nuclear staining score” value is 0.

Still in this assay, the particulars now being: HeLa, conc 0.1 μm.
Regarding `Nc1nonc1-c1nc2ccccc2n1COc1ccc([N+](=O)[O-])cc1` [Example 98], the “Hoechst 33342 nuclear staining score” value amounted to 0.

`COc1ccc(C(=O)Cn2c(-c3nonc3NCCC#N)nc3ccccc32)cc1N` [Example 69]: the “Hoechst 33342 nuclear staining score” value was 0.

Staying with this assay, now noted: HeLa, conc 1 μm.
On to `Nc1nonc1-c1nc2ccccc2n1COc1ccc([N+](=O)[O-])cc1` [Example 98], for which the “Hoechst 33342 nuclear staining score” value turned out to be 0.

Regarding `COc1ccc(C(=O)Cn2c(-c3nonc3NCCC#N)nc3ccccc32)cc1N` [Example 69], the “Hoechst 33342 nuclear staining score” value is recorded as 2 (score 2 relating to strong activity comprising more than 70% of the cells).

The assay is the same for the next values; noted with them: Jily, conc 0.01 μm.
With `Nc1nonc1-c1nc2ccccc2n1COc1ccc([N+](=O)[O-])cc1` [Example 98], the “Hoechst 33342 nuclear staining score” value is recorded as 0.

Regarding `COc1ccc(C(=O)Cn2c(-c3nonc3NCCC#N)nc3ccccc32)cc1N` [Example 69], the “Hoechst 33342 nuclear staining score” value is 0.

Still in this assay, the particulars now being: Jily, conc 0.1 μm.
`Nc1nonc1-c1nc2ccccc2n1COc1ccc([N+](=O)[O-])cc1` [Example 98]: the “Hoechst 33342 nuclear staining score” value is 0.

For the compound `COc1ccc(C(=O)Cn2c(-c3nonc3NCCC#N)nc3ccccc32)cc1N` [Example 69], the “Hoechst 33342 nuclear staining score” value is 1 (1 relating to weak activity comprising less than 70% of the cells).

Staying with this assay, now noted: Jily, conc 1 μm.
Take `Nc1nonc1-c1nc2ccccc2n1COc1ccc([N+](=O)[O-])cc1` [Example 98]: the “Hoechst 33342 nuclear staining score” value is given as 2 (score 2 relating to strong activity comprising more than 70% of the cells).

With `COc1ccc(C(=O)Cn2c(-c3nonc3NCCC#N)nc3ccccc32)cc1N` [Example 69], the “Hoechst 33342 nuclear staining score” value is on record as 2 (score 2 relating to strong activity comprising more than 70% of the cells).

Still in this assay, the particulars now being: Jurkat, conc 0.01 μm.
Take `Nc1nonc1-c1nc2ccccc2n1COc1ccc([N+](=O)[O-])cc1` [Example 98]: the “Hoechst 33342 nuclear staining score” value worked out at 0.

With `COc1ccc(C(=O)Cn2c(-c3nonc3NCCC#N)nc3ccccc32)cc1N` [Example 69], the “Hoechst 33342 nuclear staining score” value is 0.

Still in this assay, the particulars now being: Jurkat, conc 0.1 μm.
In the case of `Nc1nonc1-c1nc2ccccc2n1COc1ccc([N+](=O)[O-])cc1` [Example 98], the “Hoechst 33342 nuclear staining score” value was determined as 0.

`COc1ccc(C(=O)Cn2c(-c3nonc3NCCC#N)nc3ccccc32)cc1N` [Example 69]: the “Hoechst 33342 nuclear staining score” value is 1 (1 relating to weak activity comprising less than 70% of the cells).

Staying with this assay, now noted: Jurkat, conc 1 μm.
For `Nc1nonc1-c1nc2ccccc2n1COc1ccc([N+](=O)[O-])cc1` [Example 98], the “Hoechst 33342 nuclear staining score” value is on record as 2 (score 2 relating to strong activity comprising more than 70% of the cells).

Regarding `COc1ccc(C(=O)Cn2c(-c3nonc3NCCC#N)nc3ccccc32)cc1N` [Example 69], the “Hoechst 33342 nuclear staining score” value is on record as 2 (score 2 relating to strong activity comprising more than 70% of the cells).

The same assay, now with this note: MRC5, conc 0.01 μm.
On to `Nc1nonc1-c1nc2ccccc2n1COc1ccc([N+](=O)[O-])cc1` [Example 98], for which the “Hoechst 33342 nuclear staining score” value is recorded as 0.

For `COc1ccc(C(=O)Cn2c(-c3nonc3NCCC#N)nc3ccccc32)cc1N` [Example 69], the “Hoechst 33342 nuclear staining score” value was determined as 0.

Staying with this assay, now noted: MRC5, conc 0.1 μm.
With `Nc1nonc1-c1nc2ccccc2n1COc1ccc([N+](=O)[O-])cc1` [Example 98], the “Hoechst 33342 nuclear staining score” value is 0.

As for `COc1ccc(C(=O)Cn2c(-c3nonc3NCCC#N)nc3ccccc32)cc1N` [Example 69], the “Hoechst 33342 nuclear staining score” value was 0.

Still in this assay, the particulars now being: MRC5, conc 1 μm.
With `Nc1nonc1-c1nc2ccccc2n1COc1ccc([N+](=O)[O-])cc1` [Example 98], the “Hoechst 33342 nuclear staining score” value was determined as 0.

As for `COc1ccc(C(=O)Cn2c(-c3nonc3NCCC#N)nc3ccccc32)cc1N` [Example 69], the “Hoechst 33342 nuclear staining score” value is 1 (1 relating to weak activity comprising less than 70% of the cells).

Still in this assay, the particulars now being: PBLs, conc 0.01 μm.
Turning to `Nc1nonc1-c1nc2ccccc2n1COc1ccc([N+](=O)[O-])cc1` [Example 98], the “Hoechst 33342 nuclear staining score” value was found to be 0.

As for `COc1ccc(C(=O)Cn2c(-c3nonc3NCCC#N)nc3ccccc32)cc1N` [Example 69], the “Hoechst 33342 nuclear staining score” value is 0.

Still in this assay, the particulars now being: PBLs, conc 0.1 μm.
Consider `Nc1nonc1-c1nc2ccccc2n1COc1ccc([N+](=O)[O-])cc1` [Example 98], for which the “Hoechst 33342 nuclear staining score” value was found to be 0.

In the case of `COc1ccc(C(=O)Cn2c(-c3nonc3NCCC#N)nc3ccccc32)cc1N` [Example 69], the “Hoechst 33342 nuclear staining score” value turned out to be 0.

The same assay, now with this note: PBLs, conc 1 μm.
As for `Nc1nonc1-c1nc2ccccc2n1COc1ccc([N+](=O)[O-])cc1` [Example 98], the “Hoechst 33342 nuclear staining score” value is on record as 0.

Turning to `COc1ccc(C(=O)Cn2c(-c3nonc3NCCC#N)nc3ccccc32)cc1N` [Example 69], the “Hoechst 33342 nuclear staining score” value was 0.

In the next assay the test system is MRC5. In words: MTS proliferation assay, MRC5. Conditions: MRC5, 72 h incubation; read-out: MTS proliferation assay IC 50 MRC5. The format is cell-based. In a few lines:
(§2)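 Antiproliferative read-out by MTS (3 h, A492) after 72 h compound exposure at final 0.3–10 μM (four concentrations). Cells were plated 24 h earlier in RPMI-1640 containing 5% or 10% FCS, cultured at 37 °C with 7.5% CO2.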
Take `Nc1nonc1-c1nc2ccccc2n1COc1ccc([N+](=O)[O-])cc1` [Example 98]: the IC50 was > 1000 nM.

For the compound `COc1ccc(C(=O)Cn2c(-c3nonc3NCCC#N)nc3ccccc32)cc1N` [Example 69], the IC50 fell in the range of 100 to 1000 nM.

The subject of a further assay is Jily. Kind of assay: MTS proliferation assay, Jily. The format is cell-based. Conditions: 72 h incubation, read-out: MTS proliferation assay IC 50 Jily. In short, it runs like this: as §2
For `Nc1nonc1-c1nc2ccccc2n1COc1ccc([N+](=O)[O-])cc1` [Example 98], the IC50 was in the range of 100 to 1000 nM.

Consider `COc1ccc(C(=O)Cn2c(-c3nonc3NCCC#N)nc3ccccc32)cc1N` [Example 69], for which the IC50 lay in the range of 100 to 1000 nM.

The subject of a further assay is HeLa. In words: MTS proliferation assay, HeLa. Format: cell-based, human. Conditions: 72 h incubation, read-out: MTS proliferation assay IC 50 HeLa. In short, it runs like this: as §1
Regarding `Nc1nonc1-c1nc2ccccc2n1COc1ccc([N+](=O)[O-])cc1` [Example 98], the IC50 was > 1000 nM.

As to `COc1ccc(C(=O)Cn2c(-c3nonc3NCCC#N)nc3ccccc32)cc1N` [Example 69], the IC50 is 100 to 1000 nM.
